{"source": "patent US5897874A", "about": "“Expulsion of material from a delivery device” (R. P. Scherer Corporation, priority 1993, dated 1999)", "assay": "Drug release/delivery (pulse) time of capsule in stirred purified water at 37° C., spectrophotometric", "assay_type": "physicochemical", "from_the_text": "A coated gelatin capsule of the type shown in FIG. 1 was filled with hydrogel powder prepared as in Example 1 of particle size 425 to 710 microns, and metoclopramide drug included as a separate layer. The hydrogel powder was compacted leaving a 4.5 mm space between the top of the hydrogel layer 10 and the mouth of the body 6. The metoclopramide was placed on top and the body was sealed with a hydrogel plug. […] The nominal delivery time was three hours.\nIn order to assess the delivery time to release of the drug, each capsule was placed in a liter of purified water at 37° C. stirred with a paddle at 50 rpm. The presence of drug in the water was monitored spectrophotometrically.\nThe procedure was repeated with a capsule having a hydrogel plug designed to provide a nominal delivery time of five hours. […] The \"space\" represents the space between the top of the hydrogel layer and the mouth of the body after inclusion of the drug. The space allows insertion of the plug to its correct depth without interference from the hydrogel powder fill. In this case the hydrogel plug was recessed 0.5 mm below the upper end of the neck of the capsule body.\nDrug release was monitored spectrophotometrically at 226 nm.", "note": "Several values for one entry are separate records, joined by “and”; a condition that tells them apart may be missing. Equal entries are not always repeated."}
{"compound": "CCN(CC)CCNC(=O)c1cc(Cl)c(N)cc1OC", "note": "[metoclopramide]", "values": [{"measurement": "Delivery Time", "setting": "individual capsules 1 to 6, Example 2, hydrogel powder excipient, nominal delivery time three hours, 37° C., paddle 50 rpm", "value": "3.25 h and 3.00 h"}, {"measurement": "mean delivery time", "setting": "six capsules, Example 2, standard deviation 0.10, nominal three hours, hydrogel powder excipient", "value": 3.21, "unit": "h"}]}
{"compound": "salbutamol sulphate", "values": [{"measurement": "mean pulse time", "setting": "Example 4, standard deviation of 0.1, nominal three hour pulse time, shorter plug, hydrogel excipient", "value": 3.29, "unit": "h"}]}
